Laboratory results from PubChem BioAssay AID330 (DTP/NCI, 2004).
Several values for one entry are separate records, joined by “and”; a condition that tells them apart may be missing. Equal values may be shown once. Toxic doses and inconclusive results are not listed. Rule for the calls: active = survival T/C of 150% or more; inactive = T/C below 125% in these data.

Test system: P388 leukemia ip, CD2F1 mice, survival T/C
Assay: NCI In Vivo Anticancer Drug Screen. Data for tumor model P388 Leukemia (intraperitoneal) in CD2F1 (CDF1) mice
Details: endpoint: median survival time, higher = longer survival
Method in brief: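 Mice carrying the transplanted tumor received test compound or vehicle. Survival was recorded in each group, and the value is the treated-group measurement divided by that of the vehicle-treated control group.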

[1] = dose: 50.0 mg/kg/injection, schedule: Q01DX005 (ip), vehicle: Klucel (hydroxypropylcellulose) (HPC)
[2] = dose: 100.0 mg/kg/injection, schedule: Q01DX005 (ip), vehicle: Klucel (hydroxypropylcellulose) (HPC)
[3] = dose: 200.0 mg/kg/injection, schedule: Q01DX005 (ip), vehicle: Klucel (hydroxypropylcellulose) (HPC)
[4] = dose: 12.5 mg/kg/injection, schedule: Q01DX009 (ip), vehicle: saline with Tween-80
[5] = dose: 25.0 mg/kg/injection, schedule: Q01DX009 (ip), vehicle: saline with Tween-80
[6] = dose: 50.0 mg/kg/injection, schedule: Q01DX009 (ip), vehicle: saline with Tween-80
[7] = dose: 6.25 mg/kg/injection, schedule: Q01DX009 (ip), vehicle: saline with Tween-80
[8] = dose: 50.0 mg/kg/injection, schedule: Q01DX005 (ip), vehicle: saline with Tween-80
[9] = dose: 100.0 mg/kg/injection, schedule: Q01DX005 (ip), vehicle: saline with Tween-80
[10] = dose: 200.0 mg/kg/injection, schedule: Q01DX005 (ip), vehicle: saline with Tween-80
[11] = dose: 60.0 mg/kg/injection, schedule: Q01DX005 (ip), vehicle: Klucel (hydroxypropylcellulose) (HPC)
[12] = dose: 120.0 mg/kg/injection, schedule: Q01DX005 (ip), vehicle: Klucel (hydroxypropylcellulose) (HPC)
[13] = dose: 240.0 mg/kg/injection, schedule: Q01DX005 (ip), vehicle: Klucel (hydroxypropylcellulose) (HPC)
[14] = dose: 100.0 mg/kg/injection, schedule: Q04DX003 (ip), vehicle: other
[15] = dose: 200.0 mg/kg/injection, schedule: Q04DX003 (ip), vehicle: other

Measured: T/C

CC(C)=Cc1cc(CCC/C(C)=C/Cc2c(O)cc(C)c(C(=O)O)c2O)co1
inactive: dose: 4.5 mg/kg/injection, schedule: Q01DX005 (ip), vehicle: Klucel (hydroxypropylcellulose) (HPC) 100 % of control | dose: 9.0 mg/kg/injection, schedule: Q01DX005 (ip), vehicle: Klucel (hydroxypropylcellulose) (HPC) 91 % of control | dose: 18.0 mg/kg/injection, schedule: Q01DX005 (ip), vehicle: Klucel (hydroxypropylcellulose) (HPC) 92 % of control | dose: 36.0 mg/kg/injection, schedule: Q01DX005 (ip), vehicle: Klucel (hydroxypropylcellulose) (HPC) 98 % of control | [1] 105 % of control | dose: 72.0 mg/kg/injection, schedule: Q01DX005 (ip), vehicle: Klucel (hydroxypropylcellulose) (HPC) 88 % of control | [2] 107 % of control | [3] 98 % of control

CC(=O)OC(OC(C)=O)c1ccc([N+](=O)[O-])c([N+](=O)[O-])c1
inactive: dose: 12.5 mg/kg/injection, schedule: Q01DX010 (ip), vehicle: saline 104 % of control | dose: 25.0 mg/kg/injection, schedule: Q01DX010 (ip), vehicle: saline 109 % of control | dose: 50.0 mg/kg/injection, schedule: Q01DX010 (ip), vehicle: saline 100 % of control

OC(CC1CCCCN1)c1cc(C(F)(F)F)nc2c(C(F)(F)F)cccc12 (stereo not drawn)
inactive: [4] 101 % of control | [5] 100 % of control | [6] 108 % of control

COc1ccc(-c2nc3[nH]c(=S)[nH]c(=O)c3nc2-c2ccc(OC)c(OC)c2)cc1OC
inactive: dose: 100.0 mg/kg/injection, schedule: Q01DX001 (ip), vehicle: Klucel (hydroxypropylcellulose) (HPC) 103 % of control | dose: 200.0 mg/kg/injection, schedule: Q01DX001 (ip), vehicle: Klucel (hydroxypropylcellulose) (HPC) 105 % of control | dose: 400.0 mg/kg/injection, schedule: Q01DX001 (ip), vehicle: Klucel (hydroxypropylcellulose) (HPC) 90 % of control

COc1ccccc1-c1cn(O)c(=N)c(C#N)n1
inactive: [7] 89 % of control | [4] 94 % of control | [5] 94 % of control

COC(=O)C1CCCC(Sc2ccccc2)C1=O (stereo not drawn)
inactive: [5] 101 % of control | [6] 101 % of control | dose: 100.0 mg/kg/injection, schedule: Q01DX009 (ip), vehicle: saline with Tween-80 109 % of control

O=C(CBr)c1ccc(F)cc1
inactive: [4] 113 % of control | dose: 25.0 mg/kg/injection, schedule: Q04DX003 (ip), vehicle: saline with Tween-80 104 % of control | dose: 50.0 mg/kg/injection, schedule: Q04DX003 (ip), vehicle: saline with Tween-80 100 % of control

COc1cccc2c1C(=O)c1c(O)c3c(c(O)c1C2=O)C[C@@](O)(/C(CO)=N/NC(=O)c1ccc(Cl)c(Cl)c1)C[C@@H]3OC1CC(NC(=S)Nc2ccc(F)cc2)C(O)C(C)O1 (stereo partly drawn)
inactive: dose: 0.1 mg/kg/injection, schedule: Q01DX009 (ip), vehicle: water 99 % of control | dose: 0.2 mg/kg/injection, schedule: Q01DX009 (ip), vehicle: water 113 % of control | dose: 0.4 mg/kg/injection, schedule: Q01DX009 (ip), vehicle: water 109 % of control | dose: 0.8 mg/kg/injection, schedule: Q01DX009 (ip), vehicle: water 111 % of control | dose: 12.5 mg/kg/injection, schedule: Q01DX009 (ip), vehicle: water 94 % of control | dose: 25.0 mg/kg/injection, schedule: Q01DX009 (ip), vehicle: water 91 % of control and 94 % of control | dose: 50.0 mg/kg/injection, schedule: Q01DX009 (ip), vehicle: water 91 % of control | dose: 100.0 mg/kg/injection, schedule: Q01DX009 (ip), vehicle: water 92 % of control

c1ccc(C2=NC(c3ccccc3)=NS(S3=NC(c4ccccc4)=NC(c4ccccc4)=N3)=N2)cc1 (stereo not drawn)
inactive: [8] 106 % of control | [9] 90 % of control | [10] 88 % of control

CC(O)Cc1c(N)n2c(nc3ccccc32)[nH]c1=O (stereo not drawn)
inactive: [11] 102 % of control | [12] 97 % of control | [13] 92 % of control

CC(C[N+](C)(C)C)OC(N)=O (stereo not drawn)
inactive: dose: 50.0 mg/kg/injection, schedule: Q01DX001 (ip), vehicle: saline 101 % of control | dose: 100.0 mg/kg/injection, schedule: Q01DX001 (ip), vehicle: saline 100 % of control | dose: 200.0 mg/kg/injection, schedule: Q01DX001 (ip), vehicle: saline 108 % of control

Fc1ccccc1N/N=c1\nnc2ccccc2s1
inactive: dose: 50.0 mg/kg/injection, schedule: Q04DX002 (ip), vehicle: saline with Tween-80 97 % of control | dose: 100.0 mg/kg/injection, schedule: Q04DX002 (ip), vehicle: saline with Tween-80 93 % of control | dose: 200.0 mg/kg/injection, schedule: Q04DX002 (ip), vehicle: saline with Tween-80 92 % of control

Cc1ccc(F)cc1NC(=S)NN
inactive: dose: 7.5 mg/kg/injection, schedule: Q01DX005 (ip), vehicle: Klucel (hydroxypropylcellulose) (HPC) 100 % of control | dose: 15.0 mg/kg/injection, schedule: Q01DX005 (ip), vehicle: Klucel (hydroxypropylcellulose) (HPC) 99 % of control | dose: 30.0 mg/kg/injection, schedule: Q01DX005 (ip), vehicle: Klucel (hydroxypropylcellulose) (HPC) 91 % of control

COc1ccc(C2CC(CO)ON2c2ccccc2)cc1 (stereo not drawn)
inactive: dose: 60.0 mg/kg/injection, schedule: Q01DX005 (ip), vehicle: saline with Tween-80 98 % of control | dose: 120.0 mg/kg/injection, schedule: Q01DX005 (ip), vehicle: saline with Tween-80 98 % of control | dose: 240.0 mg/kg/injection, schedule: Q01DX005 (ip), vehicle: saline with Tween-80 99 % of control

O=C(CC(c1ccccc1)C(C(=O)O)c1ccc(Br)cc1)c1ccccc1 (stereo not drawn)
inactive: dose: 12.5 mg/kg/injection, schedule: Q01DX005 (ip), vehicle: Klucel (hydroxypropylcellulose) (HPC) 100 % of control | dose: 25.0 mg/kg/injection, schedule: Q01DX005 (ip), vehicle: Klucel (hydroxypropylcellulose) (HPC) 90 % of control | [1] 89 % of control

c1ccc2sc(SCCSc3nc4ccccc4s3)nc2c1
inactive: [11] 99 % of control | [12] 92 % of control | [13] 89 % of control

Cc1c([N+](=O)[O-])cc(N)cc1S(=O)(=O)O
inactive: [1] 96 % of control | [2] 96 % of control | [3] 93 % of control

Cc1cccc(Cl)c1NC(=O)C(C)C
inactive: [14] 104 % of control | [15] 109 % of control | dose: 400.0 mg/kg/injection, schedule: Q04DX003 (ip), vehicle: other 90 % of control

CCCCCCCCCCCCCCCCCc1ccccc1O
inactive: dose: 7.5 mg/kg/injection, schedule: Q01DX009 (ip), vehicle: saline with Tween-80 91 % of control | dose: 15.0 mg/kg/injection, schedule: Q01DX009 (ip), vehicle: saline with Tween-80 94 % of control | dose: 30.0 mg/kg/injection, schedule: Q01DX009 (ip), vehicle: saline with Tween-80 116 % of control

S=C(Cl)Sc1ccc(-c2ccc(SC(=S)Cl)cc2)cc1
inactive: [1] 88 % of control | [2] 88 % of control | [3] 87 % of control

COc1ccc(-c2cc(O)c3c(c2N)C(=O)c2c(O)ccc(N)c2C3=O)cc1
inactive: [1] 86 % of control | [2] 90 % of control | [3] 90 % of control

CC(C)OC(CCC#N)c1ccc(Cl)cc1 (stereo not drawn)
inactive: dose: 50.0 mg/kg/injection, schedule: Q04DX003 (ip), vehicle: other 105 % of control | [14] 114 % of control | [15] 99 % of control

COc1ccc(/C=N/NC(=O)CNC(=O)c2ccc(Cl)c(Cl)c2)cc1
inactive: dose: 3.13 mg/kg/injection, schedule: Q01DX009 (ip), vehicle: saline with Tween-80 100 % of control | [7] 108 % of control | [4] 107 % of control

COC(=O)C(Cc1ccccc1)NC(=O)C(Cc1cnc[nH]1)N(C(=O)OCc1ccccc1)C(=O)OCc1ccccc1 (stereo not drawn)
inactive: dose: 25.0 mg/kg/injection, schedule: Q01DX005 (ip), vehicle: saline with Tween-80 88 % of control | [8] 91 % of control | [9] 87 % of control | [10] 89 % of control
